Assays:
Format in all cases: in vivo
[1] = tested on: heterozygous Shank3-deficient mice; test: Shank3-deficient mice: male-female social interactions and ultrasonic vocalizations; details: Shank3-deficient groups; 15 or 60 mg/kg oral b.i.d 14 days; vs placebo
Method: (§1) 1 to 3 month old wild-type and heterozygous Shank3-deficient mice are divided into 4 treatment groups: placebo treated wild-type, placebo treated Shank3-deficient group and two Shank3-deficient cG-2-AllylP treated groups. The animals are given placebo (water) or cG-2-AllylP formulated in water administered orally, b.i.d for 14 days. cG-2-AllylP is administered at two doses: 15 or 60 mg/kg.
Behavioral assessments are made at several time points, and include analysis of social interactions and ultrasonic social communication, in line with the methodology described by Bozdagi et al. Briefly, male-female social interactions in each treatment group are evaluated. The subject males are group-housed and individually tested in clean cages with clean litter. Each testing session lasts 5 min. […] Videos from the male subjects are subsequently scored by an investigator uninformed of the subject's genotype and treatment group on measures of nose-to-nose sniffing, nose-to-anogenital sniffing and sniffing of other body regions, using Noldus Observer software (Noldus Information Technology, Leesburg, Va., USA). Ultrasonic vocalizations are identified manually by two highly trained investigators blinded to genotype/treatment group information, and summary statistics are calculated using the Avisoft package. […] Data are analysed using an unpaired Student's t-test.

[2] = tested on: hippocampal slices of Shank3-deficient mice; test: Shank3-deficient mice: hippocampal slice electrophysiology
Method: as §1
Post-mortem, acute hippocampal slices (350 μm) are prepared from mice using a tissue chopper. Slices are maintained and experiments are conducted at 32° C. Slices are perfused with Ringer's solution containing (in mM): NaCl, 125.0; KCl, 2.5; MgSO4, 1.3; NaH2PO4, 1.0; NaHCO3, 26.2; CaCl2, 2.5; glucose, 11.0. The Ringer's solution is bubbled with 95% 02/5% CO2, at 32° C., during extracellular recordings (electrode solution: 3 M NaCl). Slices are maintained for 1 hr prior to establishment of a baseline of field excitatory postsynaptic potentials (fEPSPs) recorded from stratum radiatum in area CA1, evoked by stimulation of the Schaffer collateral-commissural afferents (100 μs pulses every 30 s) with bipolar tungsten electrodes placed into area CA3. Test stimulus intensity is adjusted to obtain fEPSPs with amplitudes that are one-half of the maximal response. The EPSP initial slope (mV/ms) is determined from the average waveform of four consecutive responses. Input-output (I/O) curves are generated by plotting the fEPSP slope versus fiber volley amplitude in low-Mg^2+ (0.1 mM) solution. AMPA receptor-mediated and NMDA receptor-mediated I/O relationships are measured in the presence of ionotropic glutamate receptor antagonists: […] APV (50 μM) and 6-cyano-7-nitroquinoxaline-2,3-dione CNQX (100 μM). Paired-pulse responses are measured with interstimulus intervals of 10 to 200 ms, and are expressed as the ratio of the average responses to the second stimulation pulse to the first stimulation pulse. […]

[3] = tested on: fmr1-knockout mice and wild-type littermates; test: Open Field (OF) test; details: for exploratory behavior (number of squares entered): fmr1-knockout animals; for number of squares entered: wild-type animals
Method: The fmr1-knockout 2 mice (C57BL/6 background) were housed in groups of the same genotype in a temperature and humidity controlled room with a 12-h light-dark cycle (lights on 7 am to […]). Testing was conducted during the light phase. Food and water were available ad libitum. Testing was conducted on fmr1-knockout mice and their wild-type littermates. Experiments were conducted in line with the requirements of the UK Animals (Scientific Procedures) Act, 1986.
The Open Field (OF) test is a combined test that is used to determine anxiety/hyperactivity, and for habituation to a novel environment, one of the most elementary forms of learning, in which decreased exploration as a function of repeated exposure to the same environment is taken as an index of memory. This is normally studied in two sessions of exposure to the open field, a 10-min and a 24 hr habituation session.
The device used for this study is a grey PVC enclosed arena 50×30 cm divided into 10 cm squares. Mice are brought to the experimental room 5-20 min before testing. A mouse is placed into a corner square facing the corner and observed for 3 min. The number of squares entered (whole body) and rears (both front paws off the ground, but not as part of grooming) are counted. The latency to the first rear is also noted. The movement of the mouse around the field was recorded with a video tracking device for 300s (vNT4.0, Viewpoint). The latency for the mouse to enter the brightest, central part of the field total time spent in this central region, and total activity (in terms of path length in centimeters), were recorded.
The open field (OF) test is a test used to characterize explorative behavior, anxiety, and or hyperactivity in animals habituated to daily handling under novel and familiar conditions. During exposure to the open field mice will habituate to the environment and thus explore less, decreasing the amount movement they show over time.
In the present experiment, we recorded movement and rearing during an initial exposure (T1), during a second exposure after 10 minutes (T2) and during a third exposure after 24 hours (T3). Failures to reduce locomotion or rearing at 10 minutes and 24 hours indicate deficits in short and long term memory, respectively.

C=CC[C@]12CCCN1C(=O)CNC2=O [cG-2-AllylP, (8aS)-Allyl-hexahydropyrrolo[1,2-a]pyrazine-1,4-dione]
cumulative duration of total social sniffing [1]: significant increase in the cumulative duration of total social sniffing
number of ultrasonic vocalizations [1]: increased number of ultrasonic vocalizations
hippocampal long-term potentiation (LTP) and its maintenance ([2]; both Shank3-deficient groups, vs placebo): increases hippocampal long-term potentiation (LTP) and its maintenance
AMPA receptor-mediated field potentials ([2]; both heterozygous groups, 15 or 60 mg/kg): normalizes the AMPA receptor-mediated field potentials
average slope of I/O function ([2]; both heterozygous groups, vs placebo treated Shank3-deficient group): increase in the average slope of I/O function
exploratory behavior (number of squares entered) ([3]; T1): significantly reduced the exploratory behavior of fmr1-knockout animals
number of squares entered ([3]; T1): about the same number of squares
exploratory behavior (number of squares entered) ([3]; T2 (10 minutes)): normalized the magnitude of their behavior to that of the wild-type animals
number of squares entered ([3]; T2 (10 minutes)): about 45 squares
exploratory behavior (number of squares entered) ([3]; T3 (24 hours)): normalized exploratory behavior at T3
number of squares entered ([3]; T3 (24 hours)): 25-30 squares

Source: US11197856B2, “Bicyclic compounds and methods for their use in treating autism” (priority 2013, dated 2021)
